From US12396459B2, “Synergistically effective herbicide composition comprising pyridate and at least one defined 4-HPPD inhibitor” (BELCHIM CROP PROTECTION NV, priority 2018, dated 2025)

Legend:
Assay type in all cases: in vivo
[1] = tested on: Brassica rapa Canola cultivars; assay: Field trial post-emergence in maize: BRSRC; conditions: 13-14 DAA, # = 1
Experimental: (§1) Herbicidal activity of herbicide compositions according to the first aspect of the present invention with regard to different types of unwanted vegetation was determined during trials performed on test fields (field trials). Individual compositions comprising pyridate and individual compositions comprising a defined 4-HPPD inhibitor are compared with a herbicide composition according to the invention comprising both pyridate and a defined 4-HPPD inhibitor. The expected activity of the combination of the active compounds pyridate and a defined 4-HPPD inhibitor is calculated according to above mentioned calculation method by Colby, in order to evaluate a synergistic effect between pyridate and a defined 4-HPPD inhibitor.
(§2) Herbicidal activity was determined by applying herbicide compositions on emerged unwanted vegetation on fields where maize was cultivated. Pyridate and a defined 4-HPPD inhibitor were applied as a tank mixture by mixing these active compounds prior to use in a spray tank. The corresponding mixture was in the form of a spray liquor. Besides, spray liquors of individual compositions comprising pyridate and of individual compositions comprising a defined 4-HPPD inhibitor were used. Test plants of unwanted vegetation with a growth stage corresponding to BBCH 10-18 (according to the extended BBCH-scale) were sprayed with the active compound preparations such that particular desired amounts of active compounds are applied per unit area. Spray liquor was diluted with water to arrive at an application volume of 50 to 450 L/ha. At a specified number of days after application (DAA), the degree of damage to the unwanted vegetation is rated in % of plants of unwanted vegetation that were killed, which was assessed by visually controlling the plants.

[2] = tested on: Digitaria sanguinalis; assay: Field trial post-emergence in maize: DIGSA; conditions: g a.c./ha: PYR 300, MES 100, PYR + MES 300 + 90
Experimental: as §1, §2

[3] = tested on: Solanum nigrum; assay: Field trial post-emergence in maize: SOLNI; conditions: for herbicidal effect (h.e.): g a.c./ha: PYR 300, MES 100, PYR + MES 300 + 90
Experimental: as §1, §2

[4] = tested on: Brassica napus (winter); assay: Field trial post-emergence in maize: BRSNW; conditions: # = 1, g a.c./ha: PYR 300, MES 100, PYR + MES 300 + 90
Experimental: as §1, §2

[5] = tested on: Tripleurospermum inodorum; assay: Field trial post-emergence in maize: MATIN; conditions: for herbicidal effect (h.e.): # = 1, g a.c./ha: PYR 300, MES 100, PYR + MES 300 + 90
Experimental: as §1, §2

[6] = tested on: Veronica persica; assay: Examples 6-8 herbicidal effect: VERPE; conditions: 7 DAA
[7] = tested on: Stellaria media; assay: Field trial post-emergence in maize: STEME
Experimental: as §1, §2

[8] = tested on: Hibiscus ternatus; assay: Field trial post-emergence in maize: HIBTR; conditions: 7-14 DAA; # = 2; g a.c./ha: PYR 300, MES 100, PYR + MES 300 + 90
Experimental: as §1
(§3) Herbicidal activity was determined by applying herbicide compositions on emerged unwanted vegetation on fields where maize was cultivated. Pyridate and a defined 4-HPPD inhibitor were applied as a tank mixture by mixing these active compounds prior to use in a spray tank. The corresponding mixture was in the form of a spray liquor. […] At a specified number of days after application (DAA), the degree of damage to the unwanted vegetation is rated in % of plants of unwanted vegetation that were killed, which was assessed by visually controlling the plants.

[9] = tested on: Setaria viridis; assay: Field trial post-emergence in maize: SETVI
Experimental: as §1, §2
(§4) Example 1 concerns a herbicide composition comprising a combination of pyridate and mesotrione, which was applied post-emergence on unwanted vegetation on a field where maize was cultivated, according to the test conditions mentioned above.

[10] = tested on: Galinsoga parviflora; assay: Field trial post-emergence in maize: GASPA; conditions: 31-48 DAA; # = 3; g a.c./ha: PYR 300, MES 100, PYR + MES 300 + 90
Experimental: as §1, §3

[11] = tested on: Persicaria maculosa; assay: Field trial post-emergence in maize: POLPE; conditions: for herbicidal effect (h.e.): g a.c./ha: PYR 300, MES 100, PYR + MES 300 + 90
Experimental: as §1, §2

[12] = tested on: Anagallis arvensis; assay: Field trial post-emergence in maize: ANGAR; conditions: 7-14 DAA; # = 2; g a.c./ha: PYR 300, MES 100, PYR + MES 300 + 90
Experimental: as §1, §3

[13] = tested on: Poa annua; assay: Examples 6-8 herbicidal effect: POAAN; conditions: 7 DAA
[14] = tested on: Thlaspi arvense; assay: Field trial post-emergence in maize: THLAR; conditions: # = 1, g a.c./ha: PYR 300, MES 100, PYR + MES 300 + 90
Experimental: as §1, §2

[15] = tested on: Matricaria chamomilla; assay: Field trial post-emergence in maize: MATCH
Experimental: as §1, §2, §4

[16] = tested on: Portulaca oleracea; assay: Field trial post-emergence in maize: POROL; conditions: # = 1, g a.c./ha: PYR 300, MES 100, PYR + MES 300 + 90
Experimental: as §1, §2

[17] = tested on: Echinochloa crus-galli; assay: Examples 6-8 herbicidal effect: ECHCG; conditions: 7 DAA
[18] = tested on: Lamium purpureum; assay: Field trial post-emergence in maize: LAMPU
Experimental: as §1, §2, §4

[19] = tested on: Sorghum halepense; assay: Field trial post-emergence in maize: SORHA; conditions: 7-14 DAA; # = 1; g a.c./ha: PYR 300, MES 100, PYR + MES 300 + 90
Experimental: as §1, §3

[20] = g a.c./ha: PYR 10, TEM 22, PYR + TEM 10 + 100
[21] = g a.c./ha: PYR 300, PYR + MES 300 + 80
[22] = g a.c./ha: PYR 300, SCT 300, PYR + SCT 300 + 300
[23] = g a.c./ha: PYR 300, TEM 100, PYR + TEM 300 + 100
[24] = g a.c./ha: PYR 450, SCT 450, PYR + SCT 300 + 450
[25] = g a.c./ha: PYR 600, PYR + SCT 600 + 300
[26] = g a.c./ha: PYR 900, TEM 44, PYR + TEM 900 + 44

## CCCCCCCCSC(=O)Oc1cc(Cl)nnc1-c1ccccc1 [PYR, (6-chloro-3-phenylpyridazin-4-yl) octylsulfanylformate]
[1]; g a.c./ha: PYR 450, MES 144, PYR + MES 450 + 144
  herbicidal effect (h.e.): 48%
[1]; g a.c./ha: PYR 450, TOP 12.4, PYR + TOP 450 + 12.4
  herbicidal effect (h.e.): 48%
[2]; 7-14 DAA, # = 2
  herbicidal effect (h.e.): 30%
[2]; 18-28 DAA, # = 2
  herbicidal effect (h.e.): 24%
[2]; 31-48 DAA, # = 1
  herbicidal effect (h.e.): 48%
[3]; 18-28 DAA, # = 7
  herbicidal effect (h.e.): 58%
[3]; 31-48 DAA, # = 6
  herbicidal effect (h.e.): 55%
[3]; SOLNI 14-20 DAA 300 g a.c./ha
  PYR h.e.: 75%
[3]; SOLNI 14-20 DAA 600 g a.c./ha
  PYR h.e.: 88%
[4]; 7-14 DAA
  herbicidal effect (h.e.): 5%
[4]; 18-28 DAA
  herbicidal effect (h.e.): 5%
[5]; 7-14 DAA
  herbicidal effect (h.e.): 3%
[5]; 18-28 DAA
  herbicidal effect (h.e.): 5%
[5]; 31-48 DAA
  herbicidal effect (h.e.): 5%
[5]; MATIN 24-31 DAA 300 g a.c./ha
  PYR h.e.: 75%
[5]; MATIN 24-31 DAA 600 g a.c./ha
  PYR h.e.: 60%
[5]; MATIN 24-31 DAA 900 g a.c./ha
  PYR h.e.: 55%
[6]; [20]
  herbicidal effect (h.e.): 0%
[6]; [21]
  herbicidal effect (h.e.): 8%
[6]; [22]
  herbicidal effect (h.e.): 10%
[6]; [23]
  herbicidal effect (h.e.): 10%
[6]; [24]
  herbicidal effect (h.e.): 15%
[6]; [25]
  herbicidal effect (h.e.): 10%
[6]; [26]
  herbicidal effect (h.e.): 50%
[7]; 18-28 DAA, # = 4, g a.c./ha: PYR 300, MES 100, PYR + MES 300 + 90
  herbicidal effect (h.e.): 35%
[7]; STEME 14-20 DAA 300 g a.c./ha
  PYR h.e.: 18%
[7]; STEME 14-20 DAA 600 g a.c./ha
  PYR h.e.: 42%
[7]; STEME 14-20 DAA 900 g a.c./ha
  PYR h.e.: 55%
[7]; STEME 24-31 DAA 300 g a.c./ha
  PYR h.e.: 16%
[7]; STEME 24-31 DAA 600 g a.c./ha
  PYR h.e.: 30%
[7]; STEME 24-31 DAA 900 g a.c./ha
  PYR h.e.: 50%
[8]
  herbicidal effect (h.e.): 36%
[9]; SETVI 14-20 DAA 300 g a.c./ha
  PYR h.e.: 10%
[9]; SETVI 14-20 DAA 600 g a.c./ha
  PYR h.e.: 20%
[9]; SETVI 14-20 DAA 900 g a.c./ha
  PYR h.e.: 25%
[9]; SETVI 24-31 DAA 300 g a.c./ha
  PYR h.e.: 0%
[9]; SETVI 24-31 DAA 600 g a.c./ha
  PYR h.e.: 0%
[9]; SETVI 24-31 DAA 900 g a.c./ha
  PYR h.e.: 0%
[10]
  herbicidal effect (h.e.): 40%
[11]; 7-14 DAA, # = 3
  herbicidal effect (h.e.): 42%
[11]; 31-48 DAA, # = 4
  herbicidal effect (h.e.): 32%
[11]; POLPE 14-20 DAA 300 g a.c./ha
  PYR h.e.: 15%
[11]; POLPE 14-20 DAA 600 g a.c./ha
  PYR h.e.: 23%
[11]; POLPE 14-20 DAA 900 g a.c./ha
  PYR h.e.: 28%
[11]; POLPE 24-31 DAA 300 g a.c./ha
  PYR h.e.: 17%
[11]; POLPE 24-31 DAA 600 g a.c./ha
  PYR h.e.: 33%
[11]; POLPE 24-31 DAA 900 g a.c./ha
  PYR h.e.: 32%
[12]
  herbicidal effect (h.e.): 6%
[13]; [20]
  herbicidal effect (h.e.): 0%
[13]; [21]
  herbicidal effect (h.e.): 3%
[13]; [22]
  herbicidal effect (h.e.): 2%
[13]; [23]
  herbicidal effect (h.e.): 10%
[13]; [24]
  herbicidal effect (h.e.): 2%
[13]; [25]
  herbicidal effect (h.e.): 0%
[13]; [26]
  herbicidal effect (h.e.): 0%
[14]; 7-14 DAA
  herbicidal effect (h.e.): 28%
[14]; 18-28 DAA
  herbicidal effect (h.e.): 19%
[15]; MATCH 14-20 DAA 300 g a.c./ha
  PYR h.e.: 25%
[15]; MATCH 14-20 DAA 600 g a.c./ha
  PYR h.e.: 45%
[15]; MATCH 14-20 DAA 900 g a.c./ha
  PYR h.e.: 61%
[15]; MATCH 24-31 DAA 300 g a.c./ha
  PYR h.e.: 5%
[15]; MATCH 24-31 DAA 600 g a.c./ha
  PYR h.e.: 26%
[15]; MATCH 24-31 DAA 900 g a.c./ha
  PYR h.e.: 39%
[16]; 7-14 DAA
  herbicidal effect (h.e.): 30%
[16]; 18-28 DAA
  herbicidal effect (h.e.): 11%
[17]; [20]
  herbicidal effect (h.e.): 0%
[17]; [21]
  herbicidal effect (h.e.): 0%
[17]; [22]
  herbicidal effect (h.e.): 0%
[17]; [23]
  herbicidal effect (h.e.): 0%
[17]; [24]
  herbicidal effect (h.e.): 0%
[17]; [25]
  herbicidal effect (h.e.): 0%
[17]; [26]
  herbicidal effect (h.e.): 5%
[18]; LAMPU 14-20 DAA 300 g a.c./ha
  PYR h.e.: 28%
[18]; LAMPU 14-20 DAA 600 g a.c./ha
  PYR h.e.: 60%
[18]; LAMPU 14-20 DAA 900 g a.c./ha
  PYR h.e.: 65%
[18]; LAMPU 24-31 DAA 300 g a.c./ha
  PYR h.e.: 14%
[18]; LAMPU 24-31 DAA 600 g a.c./ha
  PYR h.e.: 46%
[18]; LAMPU 24-31 DAA 900 g a.c./ha
  PYR h.e.: 67%
[19]
  herbicidal effect (h.e.): 58%
